Calls of active or inactive are those of the source. The calls are words filed in the database; no cut-off is given here.
organism: Mus musculus; test: Percent inhibition of nitric oxide generation in both lipopolysaccharide and interferon gamma induced mouse macrophage RAW 264.7 cells at the concentration of 10 uM.; assay type: functional

Structure (SMILES) | inhibition at 10 µM [%]
C=CC(C)(C)Oc1c2c(c(C(C)(C)C=C)c3oc(=O)ccc13)OC(C)(C)C=C2 | 91.2
C=CC(C)(C)c1cc2c(O)c3c(c(C(C)(C)C=C)c2oc1=O)OC(C)(C)C=C3 [CLAUSARIN] | 91.2
C=CC(C)(C)c1c2c(c(O)c3ccc(=O)oc13)C=CC(C)(C)O2 [NORDENTATIN] | 91.2

organism: Mus musculus; test: Percent inhibition of nitric oxide generation in both lipopolysaccharide and interferon gamma induced mouse macrophage RAW 264.7 cells; assay type: functional

Structure (SMILES) | Inhibition [%]
CC1(C)OC1COc1c2occc2cc2ccc(=O)oc12 (stereo not drawn) [HERACLENINPRANGENIN] | 36.9
C=C(COC(=O)CC(C)C)C1OC1c1c(OC)ccc2ccc(=O)oc12 (stereo not drawn) | 86.1

organism: Mus musculus; test: Compound was tested for cytotoxicity against mouse macrophage RAW 264.7 cells using MTT assay; Inactive; assay type: functional, cell-based

Structure (SMILES) | Activity
C=C1COC2Oc3ccc4ccc(=O)oc4c3C12 (stereo not drawn) | inactive
COc1ccc2ccc(=O)oc2c1C1=C(C)COC1=O | inactive
C=CCOc1ccc2ccc(=O)oc2c1 | inactive
C=C(C)[C@H]1O[C@@H]1c1c(OC)ccc2ccc(=O)oc12 | inactive
C=CCc1c(O)ccc2ccc(=O)oc12 | inactive
CC(C)(O)[C@@H]1Cc2c(ccc3ccc(=O)oc23)O1 | inactive
O=c1ccc2c(O)cc(O)cc2o1 | inactive

organism: Mus musculus; test: Compound was tested for the inhibitory activity against mouse macrophage RAW 264.7 cells at the concentration of 50 uM; Inactive; assay type: functional, cell-based

Structure (SMILES) | Activity
CC(C)=CCOc1ccc2ccc(=O)oc2c1 | inactive
CC(C)=CCc1c(O)ccc2ccc(=O)oc12 | inactive
C=CC(C)(C)Oc1c2c(c(C(C)(C)C=C)c3oc(=O)ccc13)OC(C)(C)C=C2 | inactive
C=CC(C)(C)c1cc2c(O)c3c(c(C(C)(C)C=C)c2oc1=O)OC(C)(C)C=C3 [CLAUSARIN] | inactive
C=CC(C)(C)c1c2c(c(O)c3ccc(=O)oc13)C=CC(C)(C)O2 [NORDENTATIN] | inactive
CC(C)=CCC/C(C)=C/CC/C(C)=C/COc1ccc2ccc(=O)oc2c1 | inactive
